Results published in article PMC9080489, “Synthesis and biological evaluation of 2-aryl-benzimidazole derivatives of dehydroabietic acid as novel tubulin polymerization inhibitors” (RSC Advances, 2018).
Like-named read-outs stand apart in the source and are kept apart here.

Legend:
[1] = tested on: human hepatocarcinoma cell line (SMMC-7721); assay: MTT cytotoxic assay, SMMC-7721; format: cell-based; settings: Homo sapiens, SMMC-7721, 48 h, read-out: IC50 SMMC-7721
Procedure: (§1) The in vitro antiproliferative activity of DAA derivatives (1–5, 6a–k, 7a–k) were evaluated by MTT assay against human hepatocarcinoma cell line (SMMC-7721), human breast cancer cell line (MDA-MB-231), human cervical carcinoma cell line (HeLa), mouse colon cancer cell line (CT-26) and human normal hepatocyte cell line (QSG-7701). Nocodazole was co-assayed as the positive control and DMEM culture medium containing 0.1% DMSO was used as negative control. The results of the tested compounds expressed as IC50 values (concentration required to inhibit tumor cell proliferation by 50%) were presented in Table 1.
(§2) The human hepatocarcinoma cell line (SMMC-7721), human breast cancer cell line (MDA-MB-231), human cervical carcinoma cell line (HeLa), mouse colon cancer cell line (CT-26) and human normal hepatocyte cells (QSG-7701) used in this study were all obtained from Keygene Biotech., China. These cell lines were maintained in DMEM medium supplemented with 10% heat-inactivated fetal bovine serum in a humidified atmosphere of 5% CO2 at 37 °C.
(§3) The in vitro cytotoxic activities of the benzimidazole derivatives of dehydroabietic acid were evaluated against tested cell lines via the MTT colorimetric method. Briefly, different tumor cells were grown in DMEM medium supplemented with 10% fetal bovine serum, penicillin (100 U mL^−1), and streptomycin (50 μg mL^−1). Cells were harvested at log phase of growth and seeded in 96-well plates (100 μL per well at a density of 2 × 10^5 cells mL^−1). After 24 h incubation at 37 °C and 5% CO2 to allow cell attachment, cultures were exposed to various concentrations of the isolated compounds for 48 h. Finally, MTT solution (2.5 mg mL^−1 in PBS) was added (40 μL per well). Plates were further incubated for 4 h at 37 °C, and the formazan crystals formed were dissolved by adding 150 μL per well of DMSO. Absorption at 570 nm was measured with an ELISA plate reader. The results were expressed as IC50 values with standard deviations, which was defined as the concentration at which 50% survival of cells was discerned. Nocodazole was co-assayed as positive control.

[2] = tested on: human breast cancer cell line (MDA-MB-231); assay: MTT cytotoxic assay, MDA-MB-231; format: cell-based; settings: read-out: IC50 MDA-MB-231
Procedure: as §1, §2, §3

[3] = tested on: human cervical carcinoma cell line (HeLa); assay: MTT cytotoxic assay, HeLa; format: cell-based; settings: read-out: IC50 HeLa
Procedure: as §1, §2, §3

[4] = tested on: mouse colon cancer cell line (CT-26); assay: MTT cytotoxic assay, CT-26; format: cell-based; settings: Mus musculus, CT26, 48 h, read-out: IC50 CT-26
Procedure: as §1, §2, §3

| Structure (SMILES) | melting point [°C] | IC50 ([1]; MTT, 48 h exposure) [µM] | IC50 ([2]; MDA-MB-231, MTT, 48 h exposure) [µM] | IC50 ([3]; MTT, 48 h exposure) [µM] | IC50 ([4]; MTT, 48 h exposure) [µM] | IC50 [1] [µM] | IC50 ([2]; MDA-MB-231, 48 h) [µM] | IC50 ([3]; 48 h) [µM] | IC50 [4] [µM] |
| --- | --- | --- | --- | --- | --- | --- | --- | --- | --- |
| CC(C)c1ccc2c(c1)CC[C@H]1[C@](C)(C(=O)O)CCC[C@]21C [Compound 1, Dehydroabietic acid] | – | > 50 | > 50 | > 50 | > 50 | – | – | – | – |
| COC(=O)[C@]1(C)CCC[C@]2(C)c3ccc(C(C)C)cc3CCC12 (stereo partly shown) [Compound 2] | – | > 50 | > 50 | > 50 | > 50 | – | – | – | – |
| COC(=O)[C@]1(C)CCC[C@]2(C)c3cc(Br)c(C(C)C)cc3CCC12 (stereo partly shown) [Compound 3] | – | > 50 | > 50 | > 50 | > 50 | – | – | – | – |
| COC(=O)[C@]1(C)CCC[C@]2(C)c3cc(Br)c([N+](=O)[O-])c([N+](=O)[O-])c3CCC12 (stereo partly shown) [Compound 4, methyl 12-bromo-13,14-dinitro-deisopropyldehydroabietate] | – | – | – | – | – | 31.8 ± 3.22 | 38.8 ± 2.15 | > 50 | 35.1 ± 3.87 |
| COC(=O)[C@]1(C)CCC[C@]2(C)c3cc(Br)c(N)c(N)c3CCC12 (stereo partly shown) [Compound 5] | – | > 50 | > 50 | 43.4 ± 2.81 | 38.5 ± 3.79 | – | – | – | – |
| COC(=O)[C@]1(C)CCC[C@]2(C)c3cc(Br)c4nc(-c5ccc(Cl)cc5)[nH]c4c3CCC12 (stereo partly shown) [Compound 6f, Methyl 2′-(4-chlorophenyl)-12-bromo-13,14-imidazolyl-deisopropyl-dehydroabietate] | 139 to 141 | 16.5 ± 1.87 | 33.7 ± 4.7 | > 50 | > 50 | – | – | – | – |
| COC(=O)[C@]1(C)CCC[C@]2(C)c3cc(Br)c4nc(-c5ccccc5Cl)[nH]c4c3CCC12 (stereo partly shown) [Compound 6g, Methyl 2′-(2-chlorophenyl)-12-bromo-13,14-imidazolyl-deisopropyl-dehydroabietate] | 142 to 143 | 40.8 ± 3.32 | 19.2 ± 0.93 | > 50 | > 50 | – | – | – | – |
| COC(=O)[C@]1(C)CCC[C@]2(C)c3cc(Br)c4nc(-c5ccc(OC)cc5)[nH]c4c3CCC12 (stereo partly shown) [Compound 6i, Methyl 2′-(4-methoxyphenyl)-12-bromo-13,14-imidazolyl-deisopropyl-dehydroabietate] | 140 to 142 | > 50 | > 50 | > 50 | 21.2 ± 2.23 | – | – | – | – |

Now from value to compound, other results behind:

| melting point [°C] | Structure (SMILES) | IC50 ([1]; MTT, 48 h exposure) [µM] | IC50 ([2]; MDA-MB-231, MTT, 48 h exposure) [µM] | IC50 ([3]; MTT, 48 h exposure) [µM] | IC50 ([4]; MTT, 48 h exposure) [µM] | IC50 [1] [µM] | IC50 ([2]; MDA-MB-231, 48 h) [µM] | IC50 ([3]; 48 h) [µM] | IC50 [4] [µM] |
| --- | --- | --- | --- | --- | --- | --- | --- | --- | --- |
| 143 to 145 | COC(=O)[C@]1(C)CCC[C@]2(C)c3cc(Br)c4nc(-c5ccc(C)cc5)[nH]c4c3CCC12 (stereo partly shown) [Compound 6b, Methyl 2′-(p-tolyl)-12-bromo-13,14-imidazolyl-deisopropyl-dehydroabietate] | > 50 | > 50 | > 50 | 25.3 ± 4.96 | – | – | – | – |
| 138 to 139 | COC(=O)[C@]1(C)CCC[C@]2(C)c3cc(Br)c4nc(-c5ccccc5F)[nH]c4c3CCC12 (stereo partly shown) [Compound 6e, Methyl 2′-(2-fluorophenyl)-12-bromo-13,14-imidazolyl-deisopropyl-dehydroabietate] | 12.3 ± 2.46 | > 50 | > 50 | > 50 | – | – | – | – |
| 141 to 142 | COC(=O)[C@]1(C)CCC[C@]2(C)c3cc(Br)c4nc(-c5ccc(Br)cc5)[nH]c4c3CCC12 (stereo partly shown) [Compound 6h, Methyl 2′-(4-bromophenyl)-12-bromo-13,14-imidazolyl-deisopropyl-dehydroabietate] | 16.6 ± 1.4 | 35.3 ± 1.77 | > 50 | > 50 | – | – | – | – |
| 133 to 135 | COC(=O)[C@]1(C)CCC[C@]2(C)c3cc(-c4cc(OC)c(OC)c(OC)c4)c4nc(-c5ccc(C)cc5)[nH]c4c3CCC12 (stereo partly shown) [Compound 7b, Methyl 2′-(p-tolyl)-12-(3,4,5-trimethoxyphenyl)-13,14-imidazolyl-deisopropyl-dehydroabietate] | > 50 | > 50 | > 50 | 15.6 ± 1.57 | – | – | – | – |
